One experiment has as its target BorH (uncultured bacterium, UniProt M9QSI0). Kind of experiment: Quenching of BorH intrinsic Trp fluorescence upon FAD titration. Further details: species or system uncultured soil actinomycetes. As to conditions: 100 nM BorH; read-out: KD, FAD binding to BorH, BorH intrinsic Trp fluorescence. The protocol:
Intrinsic tryptophan fluorescence spectroscopy was used to measure FAD binding to AbeH and BorH in 20 mM HEPES pH 7.7- and 50 mM sodium citrate. FAD was prepared in the same buffer and its concentration was determined spectrophotometrically as described earlier. Fluorescence experiments were performed as described earlier. FAD binding to apo-AbeH or apo-BorH was performed in duplicate with 100 nM fixed AbeH or BorH with variable FAD concentrations up to 30 and 70 μM, respectively. AbeH/FAD binding was monitored using excitation at 295 nm and emission at 328 nm. BorH/FAD binding was monitored using excitation at 290 nm and emission at 326 nm. Inner filter effect corrected fluorescence intensities were plotted against quenched intrinsic tryptophan fluorescence of AbeH and BorH. Data were fitted by nonlinear regression to eq 1 using GraphPad Prism 8.0.
Figure S9: FAD binding determined by quenching of BorH and AbeH intrinsic Trp fluorescence.
A. Variable concentrations of FAD (0-70 µM) were incubated with 100 nM BorH and Trp fluorescence was measured with excitation at 290 nm and emission at 326 nm. […]
B. Variable concentrations of FAD (0-30 µM) were incubated with 100 nM AbeH and Trp fluorescence was measured […] with excitation at 295 nm and emission at 328 nm. […]

Experiment [1] has as its target T1, AbeH (uncultured bacterium, UniProt F6LWA5). The experiment is classed as biochemical, uncultured soil actinomycetes. To be noted: same reaction conditions. The protocol:
To test the ability of BorH and AbeH to chlorinate and brominate other substrates, 100 μL reactions containing 5 μM AbeH or BorH, 10 μM of holo-AbeF or holo-BorF, 100 mM NaCl or NaBr, 2.5 mM NADH, and 0.5 mM substrate in HEPES pH 8.0 were incubated for 12 h at 37 °C with shaking at 230 rpm. The reactions were stopped by heating at 95 °C for 5 min and centrifuged at 12,000g for 5 min. Clarified reaction mixtures were analyzed using RP-HPLC on a Kromasil C18 column (100 Å pore size, 4.6 × 250 mm) mounted on a Waters 2695 HPLC. The gradient was as follows: 0–7.5 min, 5–50% B; 7.5–14 min, 50–100%; 14–25 min, 100% B; 25–40 min 100–5% B with flow rate 0.6 mL/min (Solvent A = H2O/CH3CN 95:5, 0.1% TFA; Solvent B = H2O/CH3CN 5/95, 0.1% TFA). Substrates and products were detected by monitoring UV absorbance at the λmax for each substrate. Product peak fractions were analyzed using ESI-MS on a SYNAPT HDMS mass spectrometer in positive ion mode with leucine enkephalin internal standard.

Experiment [2] addresses T1, AbeH. In words: In vitro halogenation of Trp by AbeH, 1 h reaction, RP-HPLC/MS. The experiment is classed as biochemical, uncultured soil actinomycetes. On the procedure: In vitro halogenation reactions contained 7 μM AbeH, 13 μM holo-AbeF (∼20% saturated with FAD), 2.5 mM NADH, 0.5 mM Trp, 50 mM NaCl or NaBr in 10 mM Tris-HCl pH 8.2 in a final volume of 100 μL. Reactions were initiated by addition of NADH and incubated with 200 rpm shaking at 37 °C for 1 h. Reactions were stopped by heating to 95 °C for 10 min followed by centrifugation at 10,000g for 5 min. Reaction mixtures were analyzed by RP-HPLC using a Kromasil C18 RP-analytical column (100 Å pore size, 4.6 × 250 mm) mounted on a Waters 2695 HPLC. Separation used a 14 min gradient from 5% B to 100% B (Solvent A = H2O/CH3CN 95:5, 0.1% TFA; Solvent B = H2O/CH3CN 5/95, 0.1% TFA) with flow rate 0.6 mL/min. Trp, 5-Cl-Trp, and 5-Br-Trp peaks were monitored with absorbance at 280 nm and retention times and yields were analyzed with using retention times and peak areas from standard curves of authentic standards of Trp (ACROS Organics), 5-Cl-Trp (Santa Cruz Biotechnology) and 5-Br-Trp (Santa Cruz Biotechnology). RP-HPLC purified 5-Cl-Trp and 5-Br-Trp peaks from in vitro halogenation reactions were analyzed on a Waters SYNAPT HDMS mass spectrometer using positive ion-mode ESI-MS with leucine enkephalin as internal standard.
Figure S2: AbeH chlorinates and brominates Trp in vitro.
In vitro halogenation reactions were performed with […], […], 2.5 mM NADH, 50 mM NaCl or NaBr in 10 mM Tris-HCl pH 8.2 at 37 °C shaking at 200 rpm with final volume of […]. Standards and reactions were analyzed on a Kromasil C18 column (100 Å pore size, 4.6 x 250 mm) mounted on a Waters HPLC using a 14 min gradient from 5% -100% B (Solvent A:5% CH3CN+0.1% TFA; Solvent B:95% CH3CN+0.1% TFA) with flow rate 0.6 mL/min using 90 µL injections. Baseline subtracted peak integration was performed on Empower software (Waters). (A) Trp standard (tR = 10.3 min). (B) 5-Cl-Trp standard (tR =11.3 min). (C) 5-Br-Trp standard (tR = 11.4 min). (D) 60 min AbeH in vitro chlorination reaction of 0.5 mM Trp (tR = 11.3 min, 100% conversion to 5-Cl-Trp). […]

As usually defined, the Kd is the concentration at which binding is half-saturated.

T1 sequence (F6LWA5 entry or part of it): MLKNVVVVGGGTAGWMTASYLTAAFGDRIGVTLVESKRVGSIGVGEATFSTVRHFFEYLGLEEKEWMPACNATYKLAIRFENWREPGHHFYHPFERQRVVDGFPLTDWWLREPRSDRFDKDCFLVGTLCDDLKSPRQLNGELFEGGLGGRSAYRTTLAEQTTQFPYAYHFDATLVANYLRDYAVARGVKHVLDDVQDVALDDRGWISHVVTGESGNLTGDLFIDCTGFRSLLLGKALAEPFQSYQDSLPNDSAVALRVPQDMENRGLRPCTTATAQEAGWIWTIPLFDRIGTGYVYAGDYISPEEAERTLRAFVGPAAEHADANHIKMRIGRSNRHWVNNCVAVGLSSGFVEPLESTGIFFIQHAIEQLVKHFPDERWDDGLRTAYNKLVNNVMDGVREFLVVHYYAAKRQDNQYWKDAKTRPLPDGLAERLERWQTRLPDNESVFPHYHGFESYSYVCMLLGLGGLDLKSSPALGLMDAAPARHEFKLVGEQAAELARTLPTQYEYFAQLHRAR
Chain of BorH (M9QSI0 1-529): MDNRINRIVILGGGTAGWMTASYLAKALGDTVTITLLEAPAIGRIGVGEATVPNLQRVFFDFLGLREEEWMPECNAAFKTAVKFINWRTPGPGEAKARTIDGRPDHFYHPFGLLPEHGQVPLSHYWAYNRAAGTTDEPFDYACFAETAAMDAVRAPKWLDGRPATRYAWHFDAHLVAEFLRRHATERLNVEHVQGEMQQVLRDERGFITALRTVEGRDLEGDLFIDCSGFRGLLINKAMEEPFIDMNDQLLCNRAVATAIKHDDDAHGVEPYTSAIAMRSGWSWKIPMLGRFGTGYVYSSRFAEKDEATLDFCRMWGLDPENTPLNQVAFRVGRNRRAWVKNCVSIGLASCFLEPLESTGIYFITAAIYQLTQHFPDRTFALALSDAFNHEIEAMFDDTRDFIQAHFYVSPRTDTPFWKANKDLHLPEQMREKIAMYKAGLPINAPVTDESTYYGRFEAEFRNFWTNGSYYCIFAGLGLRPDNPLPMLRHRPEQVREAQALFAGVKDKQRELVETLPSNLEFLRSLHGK

For `Cc1cc2nc3c(=O)[nH]c(=O)nc-3n(C[C@H](O)[C@H](O)[C@H](O)COP(=O)(O)OP(=O)(O)OC[C@H]3O[C@@H](n4cnc5c(N)ncnc54)[C@H](O)[C@@H]3O)c2cc1C` [FAD], at BorH, the Kd stood at 9.1 ± 2.4 µM.

Take `N[C@@H](Cc1c[nH]c2ccccc12)C(=O)O` [Tryptophan, L-tryptophan]: the “AbeH bromination compared with chlorination of the substrate, in words” value at AbeH [1] is recorded as “prefers chlorination over bromination”. On AbeH [2] (60 min AbeH bromination reaction of 0.5 mM Trp, 50 mM NaBr), the “Conversion to 5-Br-Trp” value is recorded as ~ 80%. On AbeH [2] (60 min AbeH chlorination reaction of 0.5 mM Trp, 50 mM NaCl), the “Conversion to 5-Cl-Trp” value was 100%. In addition, the “Product formation by AbeH when NaCl was replaced with NaI” value at AbeH [2] (NaI) is reported as “No product peak was observed”.

(Values after PMC11840605, “Crystallographic and Thermodynamic Evidence of Negative Coupling in the Flavin-Dependent Tryptophan Halogenases AbeH and BorH” (ACS Omega, 2025).)
